# Laboratory results taken from patent publication US10464941B2, “Therapeutic compounds” (REGENTS OF THE UNIVERSITY OF MINNESOTA, priority 2015, dated 2019).
# Several values for one entry are separate records, joined by “and”; a condition that tells them apart may be missing. Equal values may be shown once. Marks after values point to notes of the source that are not given here.
# Columns and labels:
# [1] = system: control mice; experiment: Radiant heat tail-flick antinociception, control (LPS-untreated) mice; type: in vivo
# Text: Pain is a hallmark of many inflammatory conditions.
# [2] = system: LPS-pretreated mice; experiment: animal or person; details: for LPS pretreated i.c.v./i.t. ratio / LPS pretreated ED50 (CI) i.t.: LPS 1 mg/kg 24 hours i.p.; for LPS pretreated ED50 (CI) i.t.: tail flick
# Procedure: Male ICR-CD1 mice (17-25 g; Harlan, Madison, Wis.), C3H mice (15-20 g, National Cancer Institute, Bethesda, Md.) or TLR4 knock-out mice (gift from Dr. Sabita Roy) were housed, 4 to a small box in a temperature- and humidity-controlled environment with unlimited access to food and water. They were maintained on a 12 h light/dark cycle. All experiments were approved by the Institutional Animal Care and Use Committee of the University of Minnesota (Minneapolis, Minn.).
# The tail flick assay is used to test for antinociception described by D'Amour and Smith^64 and modified by Dewey et. al.^65 Mice are held gently in one hand with the tail positioned in the apparatus (Tail Flick Analgesia Meter, Columbus Instruments, Columbus, Ohio) for radiant heat stimulus. The tail-flick response is elicited by applying radiant heat to the dorsal side of the tail. The test latency is measured before drug treatment (control) and again after the drug treatment (test) at the peak time of the compound, a 10 s maximum cut-off time is used to prevent damage to the tail. Antinociception is quantified according to the method of Harris and Pierson^66 as the percent maximal possible effect (% MPE) which is calculated as: % MPE=(Test−Control/10−Control)×100
# A minimum of three groups of eight to ten mice are used for each dose response curve, and each mouse is used only once.
# The compounds were tested for acute tolerance by comparing the ED80-90 dose measured on day 1 to the same dose administered and retested 24 hours later on the same mouse.
# Compounds were dissolved in 5% DMSO and diluted to less than 1% DMSO for injection. These compounds were administered in a volume of 5-μl either i.c.v (Haley and McCormick) or intrathecal (i.t.) as described for mice by Hylden and Wilcox^67 in conscious mice. […] Time course studies, including the times 5, 10, 20, 30 and 60 minutes were used to determine the peak antinociception.
# Pain is a hallmark of many inflammatory conditions. […] Antinociception was evaluated using the radiant heat-induced tailflick assay. Morphine was employed as a standard opioid agonist under these conditions.
# [3] = system: CFA-induced mechanical hyperalgesia mouse model; experiment: Complete Freund's Adjuvant (CFA) mechanical hyperalgesia, electronic von Frey; type: in vivo, mice; details: i.t.
# Procedure: Before injection of CFA baseline withdrawal thresholds (g) were obtained from a mechanical stimulation using an electronic von Frey anesthesiometer (IITC Life Sciences, Woodland Hills, USA) by applying an accurate force on both left and right hind paw. (2,3) The left hindpaws were then injected (intraplantar) with a 50% solution of CFA (10 μg, Sigma-Aldrich) in water while the mice are under isoflurane anesthesia (10). Twenty-four hours later the withdrawal threshold (g) was again measured prior to and after the test compound i.t. at 10, 20, 30 and 60 minutes to determine the peak time and subsequent ED50. % MPE was calculated ((Time-point withdrawal threshold with drug−CFA withdrawal threshold)/(Day 0 withdrawal threshold−CFA withdrawal threshold))*100 (Wade, C. L., et al., PLoS One 2013, 8, e79239/1-e79239/11, 11 pp; Martinov, T., et al., J Vis Exp 2013, e51212; Sorge, R. E., et al., J. Neurosci. 2011, 31, 15450-15454).
# [4] = system: mice with cisplatin-induced hyperalgesia; experiment: Cisplatin-induced peripheral neuropathy, mechanical hyperalgesia (von Frey); type: in vivo, C3H/HeJ mice; details: cisplatin model
# Procedure: Adult male C3H/HeJ mice were tested for mechanical paw withdrawal responses on 2 consecutive days prior to treatment by determining the frequency of hind paw withdrawal evoked by a standard von Frey monofilament with a bending force of 3.9 mN applied to the plantar surface of the hind paws. Mice were then given 1 mg/kg of cisplatin intraperitoneal (i.p.) daily for 7 consecutive days and on day 14 post-injection, mechanical hyperalgesia was assessed. Compounds were administered intrathecally (i.t.) and i.p. weekly to determine peak time effects and ED50/80.
# [5] = system: WDR neuron; experiment: Extracellular recordings from dorsal horn neurons, von Frey stimulation; type: in vivo, mice; details: hind paw, 5 sec, compared with control and vehicle
# Procedure: Mice were anesthetized with isoflurane while maintaining core temperature at 37° C. A laminectomy exposed the lumbar spinal cord then mice were secured in a spinal frame. Extracellular recordings from dorsal horn neurons with receptive fields located on the plantar surface of the hind paw were obtained using glass microelectrodes lowered into the spinal cord.
# Receptive fields (RFs) of dorsal horn neurons were identified by stroking the skin and applying mild pressure. Neurons were classified functionally as low threshold (LT), wide dynamic range (WDR) and high threshold (HT) using mechanical stimulation of graded intensities. RF areas were mapped using von Frey filaments. The discharge rate of spontaneous activity was recorded for 3 minutes. Mechanical response thresholds were determined and an increasing series of von Frey filaments were applied, each for 5 sec. Action potentials and the time of stimulus application were stored on a computer. Comparisons of discharge rates were made between vehicle and MCC22.
# [6] = system: HbSS and HbAS mice; experiment: Sickle cell disease mice, paw withdrawal frequency; type: in vivo, Townes transgenic humanized mice; details: 8.0 μmol/kg i.p.
# Procedure: Townes transgenic humanized mice expressing sickle hemoglobin (HbSS/HbAS) and normal human hemoglobin (HbAA) controls (4-12 weeks of age, 20-25 g) were used in this study. Mice were characterized for hyperalgesia by quantifying cutaneous mechanical sensitivity of the hind paw and forelimb grip force. Mechanical sensitivity of the hind paw was evaluated by determining the frequency of withdrawal responses and paw withdrawal threshold. The frequency of paw withdrawal evoked by a standard von Frey monofilament with a bending force of 9.3 mN applied to the plantar surface of the hind paws was determined from 10 trials on each paw. Withdrawal threshold was determined using an electronic von Frey anesthesiometer pressed against the plantar surface with increasing force until withdrawal occurred. To assess deep tissue hyperalgesia, the tensile force of peak forelimb exertion was measured using a computerized grip force meter. To evaluate the analgesic effects of MCC22, paw withdrawal frequency was determined before and at various times after administration of […] i.p.
smiles,measurement,setting,value
"Cc1ccc(N(CCCN2CCC(Cc3ccc(C(N)=O)cc3)CC2)C(=O)C2CCN(C(=O)COCC(=O)NCCCCCCCCCCNC(=O)COCC(=O)N[C@H]3CC[C@@]4(O)C5Cc6ccc(O)c7c6[C@@]4(CCN5C)[C@H]3O7)CC2)cc1Cl [Compound 3e, N-(3-(4-(4-carbamoylbenzyl)piperidin-1-yl)propyl)-N-(3-chloro-4-methylphenyl)-1-(22-(((4aS,7S,7aR,12bS)-4a,9-dihydroxy-3-methyl-2,3,4,4a,5,6,7,7a-octahydro-1H-4,12-methanobenzofuro[3,2-e]isoquinolin-7-yl)amino)-5,18,22-trioxo-3,20-dioxa-6,17-diazadocosan-1-oyl)piperidine-4-carboxamide]",CONTROLS i.c.v./i.t. ratio,[1]; control mice,10.93^e
same,percent maximal possible effect at highest dose measured,"[1]; control mice, i.c.v., 500 pmol/mouse",49.7 ± 14.9%
same,acute tolerance (ED80 retested 24 hours later),"[1]; control mice, i.t.",(23.1-90.8)^b
same,CONTROLS ED50 (CI) i.t.,"[1]; control mice, i.t., tail flick",45.8 pmol/mouse
same,CONTROLS i.c.v./i.t. ratio,"[1]; control mice, listed as MCC22",11
same,potency increase over 3c,"[1]; i.t., LPS-untreated control mice",~4 fold
same,FIG. 4 naïve/MCC22 (value with interval),[1]; naïve mice,45.75 (23.05-90.81)
same,LPS pretreated i.c.v./i.t. ratio,[2],"~34,000^d"
same,LPS pretreated ED50 (CI) i.t.,[2]; i.t.,0.0149 pmol/mouse
same,LPS pretreated ED50 (CI) i.t.,"[2]; i.t., listed as MCC22",0.0146 pmol/mouse
same,LPS pretreated i.c.v./i.t. ratio,[2]; listed as MCC22,"34,000 and 34,223"
same,FIG. 4 LPS/MCC22 (value with interval),[2]; LPS pretreated mice,0.015 (0.01-0.03)
same,percent maximal possible effect at highest dose measured,"[2]; LPS pretreated, i.c.v., 500 pmol/mouse",41.1 ± 12.9%
same,potency in TLR4 KO mice,[2]; LPS-pretreated TLR4 KO mice,not reduced
same,effect of MK801 on antinociception,"[2]; LPS-pretreated mice treated i.t. with NMDA receptor antagonist MK801, then MCC22",virtually no effect
same,"i.t. potency ratio, morphine/MCC22","[2]; LPS-pretreated mice, i.t.",2400
same,ED50,"[2]; Mus musculus, ip, read-out: ED50 i.p.",5.6 µmol/kg
same,ED50 values (95% CI) LPS (thermal),"[2]; i.t., LPS thermal hyperalgesia model",0.015 pmol/mouse
same,potency increase over 19-atom spacer homologue 3c,"[2]; i.t., LPS-pretreated mice",> 700 fold
same,tolerance upon repeated administration,"[2]; i.t., LPS-pretreated mice",without signs of tolerance
same,potency increase over 19-atom spacer homologue 3c,"[2]; i.t., LPS-pretreated mice, listed as MCC22",at least 700 fold
same,LPS-treated/control potency ratio,"[2]; i.t., listed as MCC22",3070 and 3131
same,ED50 potency ratio (β-FNA-treated/control),[2]; inflamed mice pretreated with β-FNA,96.6
same,Relative Potency relative to a mixture of monovalent mu agonist (4) and CCR5 antagonist (2),"[2]; mouse, in vivo",~3500
same,potency relative to morphine or monovalent control ligand 4,"[2]; mouse, in vivo",~1500 fold
same,Relative Potency relative to a mixture of monovalent mu agonist (4) and CCR5 antagonist (2),"[2]; mouse, in vivo, listed as MCC22",3500
same,ED50 values (95% CI) CFA (mechanical),[3],0.019 pmol/mouse
same,ED50 (95% CI) i.p.,[4]; i.p.,3.07 pmol/mouse
same,peak time,[4]; i.p.,30 min
same,tolerance,[4]; i.p.,did not exhibit tolerance
same,ED50 (95% CI) i.t.,[4]; i.t.,0.0004 pmol/mouse
same,change of potency with time,[4]; i.t.,increased in potency over 115 days
same,peak time,[4]; i.t.,20 min
same,tolerance,[4]; i.t.,no tolerance
same,responses of WDR neuron evoked by 1.0 g (9.3 mN) von Frey filament,[5],significantly reduced responses
same,time to reduced hyperalgesia (decrease in paw withdrawal frequency),[6],≤ 30 min
